One series has as its system Escherichia coli. The experiment in a line: Antimicrobial activity against Escherichia coli after 24 hr by serial dilution method. The series is classed as functional.
Series [1] has as its system Human alphaherpesvirus 1. The experiment in a line: Antiviral activity against TK(-) aciclovir-resistant Human herpesvirus 1 strain KOS infected in human HEL cells assessed as inhibition of virus-induced cytopathicity. The format is functional, organism-based. The following applies: Human alphaherpesvirus 1, KOS.
Another series relates to Bacillus subtilis. As to the kind of experiment: Antimicrobial activity against Bacillus subtilis after 24 hr by serial dilution method. The series is classed as functional.
Series [2] can be described thus: Cytotoxicity against Chlorocebus aethiops (African green monkey) Vero cells assessed as alteration in cell morphology. The format is cell-based. The following applies: chlorocebus sabaeus.
For series [3], the system named is Coxsackievirus B4. As to the kind of experiment: Antiviral activity against Human coxsackievirus B4 infected Vero cells assessed as inhibition of virus-induced cytopathicity. The format is functional, organism-based. The settings on record: Enterovirus B.
Series [4] concerns Human immunodeficiency virus 1. The experiment in a line: Antiviral activity against Human immunodeficiency virus 1 IIIB infected human MT4 cells assessed as inhibition of virus-induced cytopathicity. The format is functional, organism-based.
Series [5] relates to Human immunodeficiency virus 2. The experiment in a line: Antiviral activity against Human immunodeficiency virus type 2 (ISOLATE ROD) infected human MT4 cells assessed as inhibition of virus-induced cytopathicity. The format is functional, organism-based. The following applies: Human immunodeficiency virus 2, ISOLATE ROD.
In a further series the test system is Candida albicans. As to the kind of experiment: Antimicrobial activity against Candida albicans after 48 hr by serial dilution method. The format is functional.
The nature of series [6]: Cytotoxicity against Homo sapiens (human) MT4 cells. The series is classed as cell-based.
The test system of series [7] is Coxsackievirus B4. The experiment in a line: Antiviral activity against Human coxsackievirus B4 infected human HeLa cells assessed as inhibition of virus-induced cytopathicity. The series is classed as functional, organism-based. The settings on record: Enterovirus B.
A further series deals with Sindbis virus. The experiment in a line: Antiviral activity against Sindbis virus infected Vero cells assessed as inhibition of virus-induced cytopathicity. The series is classed as functional, organism-based.
The subject of the next series is Human respirovirus 3. As to the kind of experiment: Antiviral activity against Human parainfluenza virus 3 infected Vero cells assessed as inhibition of virus-induced cytopathicity. The series is classed as functional, organism-based. The settings on record: Human respirovirus 3, Vero.
The subject of a further series is Vaccinia virus. The experiment in a line: Antiviral activity against Vaccinia virus infected human HEL cells assessed as inhibition of virus-induced cytopathicity. The format is functional, organism-based. The following applies: Orthopoxvirus vaccinia.
For series [8], the system named is Human alphaherpesvirus 1. The experiment in a line: Antiviral activity against Human herpesvirus 1 strain KOS infected in human HEL cells assessed as inhibition of virus-induced cytopathicity. The format is functional, organism-based. The settings on record: Human alphaherpesvirus 1, KOS.
A short description of series [9]: Cytotoxicity against Homo sapiens (human) HEL cells. The series is classed as cell-based.
Series [10] can be described thus: Cytotoxicity against Homo sapiens (human) HeLa cells. The series is classed as cell-based.
The test system of a further series is Human alphaherpesvirus 2. As to the kind of experiment: Antiviral activity against Human herpesvirus 2 strain G infected human HEL cells assessed as inhibition of virus-induced cytopathicity. The series is classed as functional, organism-based. The following applies: Human alphaherpesvirus 2, strain G.
Series [11] relates to Respiratory syncytial virus. As to the kind of experiment: Antiviral activity against Respiratory syncytial virus infected human HeLa cells assessed as inhibition of virus-induced cytopathicity. The format is functional, organism-based.
For series [12], the system named is Vesicular stomatitis virus. As to the kind of experiment: Antiviral activity against Vesicular stomatitis virus infected human HeLa cells assessed as inhibition of virus-induced cytopathicity. The format is functional, organism-based.
A further series relates to Punta Toro virus. The experiment in a line: Antiviral activity against Punta Toro virus infected Vero cells assessed as inhibition of virus-induced cytopathicity. The format is functional, organism-based.
For series [13], the system named is Mammalian orthoreovirus 1. As to the kind of experiment: Antiviral activity against Mammalian orthoreovirus 1 infected Vero cells assessed as inhibition of virus-induced cytopathicity. The format is functional, organism-based. The settings on record: Mammalian orthoreovirus 1, Vero.
For the next series, the system named is Aspergillus niger. The experiment in a line: Antimicrobial activity against Aspergillus niger after 7 days by serial dilution method. The series is classed as functional.
The subject of a further series is Staphylococcus aureus. The experiment in a line: Antimicrobial activity against Staphylococcus aureus after 24 hr by serial dilution method. The format is functional.

The record followed here is ChEMBL document CHEMBL3046007, “Isonicotinic acid hydrazide derivatives: synthesis, antimicrobial activity, and QSAR studies” (Med Chem Res, 2012).

In brackets after ≈: the same amount, converted by molar mass.

As for `Cc1ccc(/C=N/NC(=O)c2ccncc2)cc1` [N'-(4-METHYLBENZYLIDENE)ISONICOTINOHYDRAZIDE], the “-logMIC” value with Escherichia coli was found to be 1.98; in the series with Bacillus subtilis, 1.98; in the series with Candida albicans, 2.28; in the series with Aspergillus niger, 2.28; in the series with Staphylococcus aureus it was 1.98. For the same molecule, the EC50 in the series on Human alphaherpesvirus 1 [1] was above 100 µg/mL; with Coxsackievirus B4 [3], above 20 µg/mL; in series [4] it was above 25 µg/mL; in series [5] it was above 25 µg/mL; in the series with Coxsackievirus B4 [7], 9 µg/mL (≈ 37.6 µM); with Sindbis virus it was above 20 µg/mL. Further, the EC50 in the series on Human respirovirus 3 was above 20 µg/mL; in the series on Vaccinia virus it was above 100 µg/mL; in the series with Human alphaherpesvirus 1 [8] it was above 100 µg/mL; in the series with Human alphaherpesvirus 2, above 100 µg/mL; in [11], above 20 µg/mL; in [12] it was above 20 µg/mL. In addition, the EC50 (in the series with Punta Toro virus; in series [13]) was above 20 µg/mL throughout. In addition, the figures for the MCC in [2], in series [9] and in series [10] were at least 20 µg/mL, above 100 µg/mL and 100 µg/mL, respectively. This molecule also gave a CC50 in [6] of 25 µg/mL (≈ 104 µM).
